From paper PMC8963254, “Effects of Lysine N-ζ-Methylation in Ultrashort Tetrabasic Lipopeptides (UTBLPs) on the Potentiation of Rifampicin, Novobiocin, and Niclosamide in Gram-Negative Bacteria” (Antibiotics, 2022)
Like-named read-outs stand apart in the source and are kept apart here.

Experiments:
S. aureus ATCC 29213 = assay type: cell-based, Staphylococcus aureus; settings: ATCC 29213, 18 h
Description: (§1) The in vitro antibacterial activity of the UTBLPs was assessed against wild-type and clinically isolated bacterial strains. To obtain the MIC of the compounds, the microbroth dilution susceptibility assay was performed according to the Clinical and Laboratory Standards Institute (CLSI, Wayne, PA, USA) guidelines and as previously described. Briefly, the compounds at varying concentrations were incubated with bacterial inoculum (5 × 10^5 CFU/mL final concentration) at 37 °C for 18 h. Growth in the form of turbidity was confirmed using an EMax Plus microplate reader (Molecular Devices, San Jose, CA, USA) at 590 nm.

MRSA ATCC 33592 = assay type: cell-based, Staphylococcus aureus; settings: ATCC 33592, 18 h
Description: as §1

P. aeruginosa PAO1 [1] = assay type: cell-based, Pseudomonas aeruginosa; settings: PAO1, 18 h
Description: as §1

A. baumannii 92247 = assay type: cell-based, Acinetobacter baumannii; settings: for MICUTBLP: UTBLP alone
Summary of the method: (§2)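 Values derive from a two-agent checkerboard with an 18 h, 37 °C incubation. FICI cut-offs: ≤0.5 synergy, 0.5–4 additive, >4 antagonism.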

A. baumannii ATCC 17978 = assay type: cell-based, Acinetobacter baumannii; settings: for MICUTBLP: UTBLP alone
Summary of the method: as §2

A. baumannii AB027 = assay type: cell-based, Acinetobacter baumannii; settings: for MICUTBLP: UTBLP alone
Summary of the method: as §2

E. cloacae 118564 [2] = test: microbe, parasite or virus in culture; assay type: cell-based, Enterobacter cloacae; settings: 118564, 18 h
Summary of the method: (§3)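 Turbidity at 590 nm defined growth, from which the MIC was taken. Cultures at a final density of 5 × 10^5 CFU/mL were exposed to a range of compound levels at 37 °C for 18 h in a CLSI-based microdilution format.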

[3] = tested on: P. aeruginosa PA259-96196; assay type: cell-based, Pseudomonas aeruginosa; settings: for MICUTBLP: UTBLP alone
Summary of the method: as §2

[4] = tested on: P. aeruginosa PA262-101856; assay type: cell-based, Pseudomonas aeruginosa; settings: for MICUTBLP: UTBLP alone
Summary of the method: as §2

P. aeruginosa PAO1 [5] = assay type: cell-based, Pseudomonas aeruginosa; settings: for MICUTBLP: UTBLP alone
Summary of the method: as §2

[6] = tested on: P. aeruginosa PA259-96196; test: microbe, parasite or virus in culture; assay type: cell-based, Pseudomonas aeruginosa; settings: PA259-96196, 18 h
Summary of the method: as §3

[7] = tested on: P. aeruginosa PA262-101856; test: microbe, parasite or virus in culture; assay type: cell-based, Pseudomonas aeruginosa; settings: PA262-101856, 18 h
Summary of the method: as §3

E. cloacae 118564 [8] = assay type: cell-based, Enterobacter cloacae; settings: for MICUTBLP: UTBLP alone
Summary of the method: as §2

[9] = UTBLP in combination with novobiocin
[10] = UTBLP in combination with rifampicin
[11] = novobiocin in combination with the UTBLP
[12] = rifampicin in combination with the UTBLP
[13] = UTBLP in combination with chloramphenicol
[14] = UTBLP in combination with niclosamide
[15] = chloramphenicol in combination with the UTBLP
[16] = niclosamide in combination with the UTBLP

Compound: CCCCCCCC(=O)N[C@@H](CCCCN(C)C)C(=O)NCCCN(CCCNC(=O)[C@H](CCCCN(C)C)NC(=O)CCCCCCC)CC(=O)N[C@@H](CCCCN(C)C)C(N)=O [UTBLP 3]
- MIC (S. aureus ATCC 29213): >128 µg/mL
- MIC (MRSA ATCC 33592): >128 µg/mL
- MIC (P. aeruginosa PAO1 [1]): >128 µg/mL
- Interpretation (A. baumannii 92247; UTBLP + novobiocin): Synergy (FICI ≤ 0.5 is synergistic)
- Interpretation (A. baumannii 92247; UTBLP + rifampicin): Synergy (FICI ≤ 0.5 is synergistic)
- MICUTBLP (A. baumannii 92247; plate with novobiocin): > 128 µg/mL
- MICUTBLP (A. baumannii 92247; plate with rifampicin): > 128 µg/mL
- MICUTBLP [MICcombo] (A. baumannii 92247; [9]): 8 µg/mL
- MICUTBLP [MICcombo] (A. baumannii 92247; [10]): 16 µg/mL
- MICantibiotic [MICcombo] (A. baumannii 92247; [11]): 1 µg/mL
- MICantibiotic [MICcombo] (A. baumannii 92247; [12]): 0.25 µg/mL
- Interpretation (A. baumannii ATCC 17978; UTBLP + chloramphenicol): Additive (0.5 < x ≤ 4 is additive)
- Interpretation (A. baumannii ATCC 17978; UTBLP + niclosamide): Additive (0.5 < x ≤ 4 is additive)
- Interpretation (A. baumannii ATCC 17978; UTBLP + novobiocin): Synergy (FICI ≤ 0.5 is synergistic)
- Interpretation (A. baumannii ATCC 17978; UTBLP + rifampicin): Synergy (FICI ≤ 0.5 is synergistic)
- MICUTBLP (A. baumannii ATCC 17978; plate with chloramphenicol): > 128 µg/mL
- MICUTBLP (A. baumannii ATCC 17978; plate with niclosamide): > 128 µg/mL
- MICUTBLP (A. baumannii ATCC 17978; plate with novobiocin): > 128 µg/mL
- MICUTBLP (A. baumannii ATCC 17978; plate with rifampicin): > 128 µg/mL
- MICUTBLP [MICcombo] (A. baumannii ATCC 17978; [13]): 16 µg/mL
- MICUTBLP [MICcombo] (A. baumannii ATCC 17978; [14]): 0.25 µg/mL
- MICUTBLP [MICcombo] (A. baumannii ATCC 17978; [9]): 8 µg/mL
- MICUTBLP [MICcombo] (A. baumannii ATCC 17978; [10]): 8 µg/mL
- MICantibiotic [MICcombo] (A. baumannii ATCC 17978; [15]): 64 µg/mL
- MICantibiotic [MICcombo] (A. baumannii ATCC 17978; [16]): 1024 µg/mL
- MICantibiotic [MICcombo] (A. baumannii ATCC 17978; [11]): 1 µg/mL
- MICantibiotic [MICcombo] (A. baumannii ATCC 17978; [12]): 0.5 µg/mL
- Interpretation (A. baumannii AB027; UTBLP + novobiocin): Synergy (FICI ≤ 0.5 is synergistic)
- Interpretation (A. baumannii AB027; UTBLP + rifampicin): Additive (0.5 < x ≤ 4 is additive)
- MICUTBLP (A. baumannii AB027; plate with novobiocin): > 128 µg/mL
- MICUTBLP (A. baumannii AB027; plate with rifampicin): > 128 µg/mL
- MICUTBLP [MICcombo] (A. baumannii AB027; [9]): 16 µg/mL
- MICUTBLP [MICcombo] (A. baumannii AB027; [10]): 4 µg/mL
- MICantibiotic [MICcombo] (A. baumannii AB027; [11]): 2 µg/mL
- MICantibiotic [MICcombo] (A. baumannii AB027; [12]): 0.5 µg/mL
- MIC (E. cloacae 118564 [2]): > 128 µg/mL
- Interpretation ([3]; UTBLP + novobiocin): Additive (0.5 < x ≤ 4 is additive)
- Interpretation ([3]; UTBLP + rifampicin): Additive (0.5 < x ≤ 4 is additive)
- MICUTBLP ([3]; plate with novobiocin): > 128 µg/mL
- MICUTBLP ([3]; plate with rifampicin): > 128 µg/mL
- MICUTBLP [MICcombo] [3, 9]: 0.25 µg/mL
- MICUTBLP [MICcombo] [3, 10]: 16 µg/mL
- MICantibiotic [MICcombo] [3, 11]: 2048 µg/mL
- MICantibiotic [MICcombo] [3, 12]: 16 µg/mL
- Interpretation ([4]; UTBLP + novobiocin): Additive (0.5 < x ≤ 4 is additive)
- Interpretation ([4]; UTBLP + rifampicin): Additive (0.5 < x ≤ 4 is additive)
- MICUTBLP ([4]; plate with novobiocin): > 128 µg/mL
- MICUTBLP ([4]; plate with rifampicin): > 128 µg/mL
- MICUTBLP [MICcombo] [4, 9]: 8 µg/mL
- MICUTBLP [MICcombo] [4, 10]: 0.25 µg/mL
- MICantibiotic [MICcombo] [4, 11]: 1024 µg/mL
- MICantibiotic [MICcombo] [4, 12]: 512 µg/mL
- Interpretation (P. aeruginosa PAO1 [5]; UTBLP + chloramphenicol): Additive (0.5 < x ≤ 4 is additive)
- Interpretation (P. aeruginosa PAO1 [5]; UTBLP + niclosamide): Additive (0.5 < x ≤ 4 is additive)
- Interpretation (P. aeruginosa PAO1 [5]; UTBLP + novobiocin): Additive (0.5 < x ≤ 4 is additive)
- Interpretation (P. aeruginosa PAO1 [5]; UTBLP + rifampicin): Additive (0.5 < x ≤ 4 is additive)
- MICUTBLP (P. aeruginosa PAO1 [5]; plate with chloramphenicol): > 128 µg/mL
- MICUTBLP (P. aeruginosa PAO1 [5]; plate with niclosamide): > 128 µg/mL
- MICUTBLP (P. aeruginosa PAO1 [5]; plate with novobiocin): > 128 µg/mL
- MICUTBLP (P. aeruginosa PAO1 [5]; plate with rifampicin): > 128 µg/mL
- MICUTBLP [MICcombo] (P. aeruginosa PAO1 [5]; [13]): 8 µg/mL
- MICUTBLP [MICcombo] (P. aeruginosa PAO1 [5]; [14]): 0.25 µg/mL
- MICUTBLP [MICcombo] (P. aeruginosa PAO1 [5]; [9]): 16 µg/mL
- MICUTBLP [MICcombo] (P. aeruginosa PAO1 [5]; [10]): 0.25 µg/mL
- MICantibiotic [MICcombo] (P. aeruginosa PAO1 [5]; [15]): 8 µg/mL
- MICantibiotic [MICcombo] (P. aeruginosa PAO1 [5]; [16]): 1024 µg/mL
- MICantibiotic [MICcombo] (P. aeruginosa PAO1 [5]; [11]): 512 µg/mL
- MICantibiotic [MICcombo] (P. aeruginosa PAO1 [5]; [12]): 16 µg/mL
- MIC [6]: > 128 µg/mL
- MIC [7]: > 128 µg/mL
- Interpretation (E. cloacae 118564 [8]; UTBLP + novobiocin): Synergy (FICI ≤ 0.5 is synergistic)
- Interpretation (E. cloacae 118564 [8]; UTBLP + rifampicin): Synergy (FICI ≤ 0.5 is synergistic)
- MICUTBLP (E. cloacae 118564 [8]; plate with novobiocin): > 128 µg/mL
- MICUTBLP (E. cloacae 118564 [8]; plate with rifampicin): > 128 µg/mL
- MICUTBLP [MICcombo] (E. cloacae 118564 [8]; [9]): 16 µg/mL
- MICUTBLP [MICcombo] (E. cloacae 118564 [8]; [10]): 8 µg/mL
- MICantibiotic [MICcombo] (E. cloacae 118564 [8]; [11]): 16 µg/mL
- MICantibiotic [MICcombo] (E. cloacae 118564 [8]; [12]): 2 µg/mL
